{"source": "patent US4537774A", "about": "“Hot-water extracts of neem bark” (priority 1980, dated 1985)", "key": {"sarcoma 180 solid tumor": {"system": "sarcoma 180 solid tumor", "assay": "Effects on sarcoma 180 solid tumor (Test IV)", "type": "in vivo, mouse", "conditions": "for Rating / T/C (%): Table IV; for T/C (%): tumor weight ratio", "procedure": "Test materials were prepared in the same manner as in Test III under (1).\nA cell suspension containing 1×10^8 cells per ml. was prepared in the same way as in Test III under (2). Four week old-ICR mice was innoculated subcutaneously on the back with 0.1 ml. of the suspension by means of a syringe.\nAs in Test III under (3), a group of 6 animals was used for each concentration of each test material.\nGrown tumor tissue was resected on the […] of the tumor cell transplantation and weighed. An average for the group of 6 animals was taken for the evaluation. The effect was evaluated on the basis of ratio of the average weight for the treated animals to that of the control animals (T/C). […] Ratios (T/C) of 100-71% were rated ineffective (-), of 70-51% plus 1 (+), of 50-21% plus 2 (++), and of 20-0% plus 3 (+++).\n(§1) The neem extracts produced in the above examples were tested for effects on sarcoma 180 ascites and solid tumors according to the methods described in the aforementioned Tests."}, "[1]": {"system": "sarcoma 180 ascites tumor", "assay": "Effects on sarcoma 180 ascites tumor (Test III)", "type": "in vivo, mouse", "conditions": "for Rating / T/C (%): Table III, i.p.; for T/C (%): TPCV ratio", "procedure": "A portion of each of the extraction fractions was suspended or dissolved in 0.5% suspension of carboxymethylcellulose (CMC) in a phosphate buffer saline solution (PBS commercially available from GIBCO Laboratories, containing ca. 9.5 mM phosphate) to a predetermined concentration.\nMouse sarcoma 180 tumor cells which have been subcultivated intraperitoneally in ICR mice were drawn from the mouse together with the ascites and diluted with physiological saline solution to a cell count of 10^8 per ml. The tumor cell suspension thus prepared was transplanted by means of a syringe intraperitoneally into 4 week-old male ICR mice at a dose of 0.1 ml. Consequently, the cell count transplanted per mouse was 1×10^7.\nThe test material as prepared above was intraperitoneally administered at a dose of 0.1 ml. per mouse for 4 days once a day from the next day of the transplantation of mouse sarcoma 180 tumor cells. A group of 6 mice was employed for each concentration of each test material. […] As a control was administered the CMC-containing PBS as described above only in the same way as above. The dose is expressed as weight per kg. bodyweight of mouse.\nOn the 7th day of transplantation of the tumor cells bodyweight of each mouse was measured (X). Then, ascites was thoroughly drawn from the mouse, followed by measurement of the bodyweight (Y). X-Y is taken as the amount of ascites.\nThe drawn ascites was then introduced into a hematocrit tube and then centrifuged at 15,000 G for 5 minutes using a hematocrit rotor at a low temperature. There was thus made determination of the ascitocrit value, that is, proportion of the cells present in the ascites which corresponded to the hematocrit value in hematology. The value multiplied by volume of the ascites gives the volume of the cells present in the ascites. This is designated as total packed cell volume (TPCV).\nEffect on the tumor was rated ineffective (-) when the TPCV ratio of the treated to the control (T/C) was 100-66%, plus 1 (+) when it was 65-41%, plus 2 (++) when it was 40-11%, and plus 3 (+++) when it was 10-0%.\nas §1"}, "mouse L-5178Y cells": {"system": "mouse L-5178Y cells", "assay": "Effects on mouse L-5178Y cells (Test II)", "type": "cell-based", "procedure": "A medium containing 1×10^5 cells/ml. was prepared using mouse L-5178Y cells cultivated on RPMI-1640 medium containing 10% fetal bovine serum for 3 days. The medium was placed in a 96-well U-type microplate in an amount of 50 μl. per well.\nA portion of the test material, which was one of the extracts according to the invention described in the above examples, was dissolved in the medium to a final concentration in the medium as shown in Table II below. The amount of the solution per well was 50 μl. The test material thus prepared was incubated in a carbon-dioxide incubator at 37° C. for 2 days. After completion of the incubation, the cells were collected and counted well by well, and the cell counts were compared with cell count of control which contained no test material. The cell count of control was approximately 8.6×10^5 /ml. In order to confirm the effects of the test materials, the same test was done with mitomycin C (MMC) or bleomycin (BLM). In the table below, T/C represents the ratio of count of the cells treated with the test material to that with no test material added. ID50 is the concentration of the test material required for decreasing concentration of the cells to 1/2 that of the control."}, "[2]": {"conditions": "dose 0.1 μg./kg. (so in the source)"}, "[3]": {"conditions": "Tables V/VII, mice, 1.5 mg./kg."}, "[4]": {"conditions": "dose 0.5 μg./kg. (so in the source)"}, "[5]": {"conditions": "dose 1.5 μg./kg. (so in the source)"}, "[6]": {"conditions": "dose 20 μg./kg. (so in the source)"}, "[7]": {"conditions": "dose 10 μg./kg. (so in the source)"}, "[8]": {"conditions": "dose 33 μg./kg. (so in the source)"}}, "note": "Starred links: 1 amine or outer side, 2 acyl side, 3 side chain; linkers in the order of their positions; H or OH if unused. Positions of bridges follow the written chain, without caps; N, C: chain ends. Non-standard residues stand in square brackets, D forms with d. Residues, ends and D or L forms follow the SMILES beside them. Chains are numbered I, II in the order given. Actinocin(9to1) = Cc1c2oc3c(C)ccc(C(=O)[*:1])c3nc-2c(C(=O)[*:2])c(N)c1=O; NMeV = CN[C@H](C(=O)O)C(C)C; Sar = CNCC(=O)O", "data": [{"compound": "Cc1c2oc3c(C)ccc(C(=O)N[C@@H]4C(=O)N[C@H](C(C)C)C(=O)N5CCC[C@H]5C(=O)N(C)CC(=O)N(C)[C@@H](C(C)C)C(=O)O[C@@H]4C)c3nc-2c(C(=O)N[C@@H]2C(=O)N[C@H](C(C)C)C(=O)N3CCC[C@H]3C(=O)N(C)CC(=O)N(C)[C@@H](C(C)C)C(=O)O[C@@H]2C)c(N)c1=O", "note": "[ACD, actinomycin D] (I: T[dV]P[Sar][NMeV] / II: T[dV]P[Sar][NMeV]; ester I:1-I:C, II:1-II:C; linker I:N-II:N via Actinocin(9to1))", "values": [{"measurement": "Rating", "setting": "sarcoma 180 solid tumor; dose 0.1 mg./kg.", "value": "- (Ratios (T/C) of 100-71% were rated ineffective (-))"}, {"measurement": "T/C (%)", "setting": "sarcoma 180 solid tumor; dose 0.1 mg./kg.", "value": 102.4, "unit": "%"}, {"measurement": "Rating", "setting": "[1]; [2]", "value": "+++ (plus 3 (+++) when it was 10-0%)"}, {"measurement": "T/C (%)", "setting": "[1]; [2]", "value": 0, "unit": "%"}]}, {"compound": "CO[C@@]12[C@H](COC(N)=O)C3=C(C(=O)C(C)=C(N)C3=O)N1C[C@@H]1N[C@@H]12", "note": "[MMC, mitomycin C]", "values": [{"measurement": "IC50", "setting": "mouse L-5178Y cells; Mus musculus, L5178Y, 48 h, read-out: ID50", "value": 0.09, "unit": "µg/mL"}, {"measurement": "Rating", "setting": "sarcoma 180 solid tumor; dose 0.5 mg./kg.", "value": "- (Ratios (T/C) of 100-71% were rated ineffective (-))"}, {"measurement": "T/C (%)", "setting": "sarcoma 180 solid tumor; dose 0.5 mg./kg.", "value": 71.0, "unit": "%"}, {"measurement": "Rating", "setting": "sarcoma 180 solid tumor; dose 1.5 mg./kg.", "value": "++ (of 50-21% plus 2 (++))"}, {"measurement": "T/C (%)", "setting": "sarcoma 180 solid tumor; dose 1.5 mg./kg.", "value": 32.5, "unit": "%"}, {"measurement": "Solid tumor Rating", "setting": "sarcoma 180 solid tumor; [3]", "value": "++ (of 50-21% plus 2 (++))"}, {"measurement": "Solid tumor T/C", "setting": "sarcoma 180 solid tumor; [3]", "value": 38.9}, {"measurement": "Rating", "setting": "[1]; [4]", "value": "+++ (plus 3 (+++) when it was 10-0%)"}, {"measurement": "T/C (%)", "setting": "[1]; [4]", "value": 0, "unit": "%"}, {"measurement": "Rating", "setting": "[1]; [5]", "value": "+++ (plus 3 (+++) when it was 10-0%)"}, {"measurement": "T/C (%)", "setting": "[1]; [5]", "value": 0, "unit": "%"}, {"measurement": "Ascites tumor Rating", "setting": "[1]; [3]", "value": "+++ (plus 3 (+++) when it was 10-0%)"}, {"measurement": "Ascites tumor T/C", "setting": "[1]; [3]", "value": 0}]}, {"compound": "O=c1[nH]cc(F)c(=O)[nH]1", "note": "[Example 5-Fu, 5-fluorouracil]", "values": [{"measurement": "Rating", "setting": "sarcoma 180 solid tumor; dose 20 mg./kg.", "value": "+ (of 70-51% plus 1 (+))"}, {"measurement": "T/C (%)", "setting": "sarcoma 180 solid tumor; dose 20 mg./kg.", "value": 47.8, "unit": "%"}, {"measurement": "Rating", "setting": "[1]; [6]", "value": "+++ (plus 3 (+++) when it was 10-0%)"}, {"measurement": "T/C (%)", "setting": "[1]; [6]", "value": 0, "unit": "%"}]}, {"compound": "bleomycin [BLM]", "values": [{"measurement": "ID50", "setting": "mouse L-5178Y cells; 37° C., 2 days", "value": 7.8, "unit": "µg/mL"}, {"measurement": "Rating", "setting": "sarcoma 180 solid tumor; dose 10 mg./kg.", "value": "++ (of 50-21% plus 2 (++))"}, {"measurement": "T/C (%)", "setting": "sarcoma 180 solid tumor; dose 10 mg./kg.", "value": 43.5, "unit": "%"}, {"measurement": "Rating", "setting": "[1]; [7]", "value": "+++ (plus 3 (+++) when it was 10-0%)"}, {"measurement": "T/C (%)", "setting": "[1]; [7]", "value": 0, "unit": "%"}]}, {"compound": "O=P1(N(CCCl)CCCl)NCCCO1", "note": "(stereo not drawn) [CYP, cyclophosphamide]", "values": [{"measurement": "Rating", "setting": "sarcoma 180 solid tumor; dose 33 mg./kg.", "value": "+++ (of 20-0% plus 3 (+++))"}, {"measurement": "T/C (%)", "setting": "sarcoma 180 solid tumor; dose 33 mg./kg.", "value": 0, "unit": "%"}, {"measurement": "Rating", "setting": "[1]; [8]", "value": "+++ (plus 3 (+++) when it was 10-0%)"}, {"measurement": "T/C (%)", "setting": "[1]; [8]", "value": 0, "unit": "%"}]}]}
